Holding throughout (assay type): biochemical
Assay [1] has as its target CDK6/CCND1 (Homo sapiens, UniProt Q00534). Nature of the assay: CDK6 homogeneous time-resolved fluorescence (HTRF) kinase assay. To be noted: CDK6/CCND. In a few lines: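 Enzyme pre-incubated 20 min at 23 °C with compound, then reacted 60 min at 23 °C with 1 mM ATP and 50 nM ULight-4E-BP1 (Thr37/46) peptide; 1 nM enzyme, 1% DMSO. EDTA-stopped, Eu-anti-phospho antibody TR-FRET read (665 nm or 665/615 ratio); 11-point half-log titration from 10 μM gave IC50.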

The target in assay [2] is CDK1/CCNB1 (Homo sapiens, UniProt P06493). Nature of the assay: CDK1 homogeneous time-resolved fluorescence (HTRF) kinase assay. To be noted: CDK1/CCNB. In a few lines: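 High-ATP (1 mM) HTRF assay with 0.5 nM CDK1/cyclin B1 and 50 nM ULight-4E-BP1 (Thr37/46) substrate, 60 min at 23 °C after 20-min compound preincubation. IC50 values come from dose-response curves.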
(In TR-FRET formats the signal depends on donor and acceptor labels being close together.)

The target in assay [3] is CDK2/CCNE1 (Homo sapiens, UniProt P24941). Put plainly: CDK2 homogeneous time-resolved fluorescence (HTRF) kinase assay. To be noted: CDK2/CCNE. In a few lines: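 Compounds were titrated 11-point, half-log from typically 10 μM against 3 nM CDK2/cyclin E1 at 1 mM ATP, with a 20 min enzyme preincubation. Phosphorylation of 50 nM ULight-4E-BP1 peptide over 60 min at 23 °C was detected by europium anti-phospho antibody TR-FRET.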

For assay [4], the target named is CDK4/CCND3 (Homo sapiens, UniProt P11802). Put plainly: CDK4 homogeneous time-resolved fluorescence (HTRF) kinase assay. To be noted: CDK4/CCND. In a few lines:
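Steps: compound plus 1.5 nM CDK4/CCND3, 20 min, 23 °C; add 1 mM ATP and 50 nM ULight-4E-BP1 (Thr37/46) peptide, 60 min; stop with 10 mM EDTA; add 2 nM Eu anti-phospho antibody, 60 min; read 665 nm. IC50 from 11-point half-log series starting 10 μM.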

Where [5] appears, read: 25-250 nM marked x, read-out: CDK6/CCND IC50 25-250 nM.
Setting [6] is: 25-250 nM marked x, read-out: CDK1/CCNB IC50 25-250 nM.
Setting [7] is: <25 nM, read-out: CDK2/CCNE IC50 <25 nM.
[8] abbreviates: 25-250 nM marked x, read-out: CDK4/CCND IC50 25-250 nM.
[9] abbreviates: >250 nM marked x, read-out: CDK1/CCNB IC50 >250 nM.
[10] abbreviates: <25 nM, read-out: CDK6/CCND IC50 <25 nM.
[11] abbreviates: <25 nM, read-out: CDK4/CCND IC50 <25 nM.
The mark [12] stands for this setting: 25-250 nM marked x, read-out: CDK2/CCNE IC50 25-250 nM.

The results in this text go back to patent US20260325533A1, “CDK INHIBITOR COMPOUNDS” (ALEKSIA THERAPEUTICS, INC., priority 2023, published 2026).

Molecules are shown by their SMILES. pIC50: −log10 of the molar value. Read-outs that look alike come from different tables or passages of the source.

Sequence of CDK4/CCND3 (P11802 whole entry): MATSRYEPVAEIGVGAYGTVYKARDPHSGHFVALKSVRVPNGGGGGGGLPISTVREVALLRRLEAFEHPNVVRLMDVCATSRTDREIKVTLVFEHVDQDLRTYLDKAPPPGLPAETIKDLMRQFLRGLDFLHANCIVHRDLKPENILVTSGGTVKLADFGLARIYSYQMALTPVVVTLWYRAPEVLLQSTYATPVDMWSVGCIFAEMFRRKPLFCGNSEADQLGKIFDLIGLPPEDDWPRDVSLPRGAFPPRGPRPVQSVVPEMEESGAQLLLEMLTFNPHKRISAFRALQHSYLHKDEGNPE
Sequence of CDK4/CCND3 (P30281 whole entry partner): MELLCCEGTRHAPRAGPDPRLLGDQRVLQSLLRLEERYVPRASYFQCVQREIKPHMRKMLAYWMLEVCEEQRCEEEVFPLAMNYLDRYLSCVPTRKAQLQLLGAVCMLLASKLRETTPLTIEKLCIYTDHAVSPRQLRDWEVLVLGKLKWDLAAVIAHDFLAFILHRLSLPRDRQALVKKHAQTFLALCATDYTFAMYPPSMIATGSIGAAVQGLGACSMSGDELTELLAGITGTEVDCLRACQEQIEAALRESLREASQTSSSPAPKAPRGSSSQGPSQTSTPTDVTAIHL
Sequence of CDK1/CCNB1 (P06493 whole entry): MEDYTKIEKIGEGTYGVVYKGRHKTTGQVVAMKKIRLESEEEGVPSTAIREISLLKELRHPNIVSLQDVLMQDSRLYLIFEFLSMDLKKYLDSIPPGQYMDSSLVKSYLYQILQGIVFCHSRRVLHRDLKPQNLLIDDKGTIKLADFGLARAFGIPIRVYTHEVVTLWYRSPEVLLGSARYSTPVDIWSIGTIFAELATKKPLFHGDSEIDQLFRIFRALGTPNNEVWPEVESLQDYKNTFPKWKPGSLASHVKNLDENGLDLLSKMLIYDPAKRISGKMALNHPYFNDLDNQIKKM
Sequence of CDK1/CCNB1 (P14635 whole entry partner): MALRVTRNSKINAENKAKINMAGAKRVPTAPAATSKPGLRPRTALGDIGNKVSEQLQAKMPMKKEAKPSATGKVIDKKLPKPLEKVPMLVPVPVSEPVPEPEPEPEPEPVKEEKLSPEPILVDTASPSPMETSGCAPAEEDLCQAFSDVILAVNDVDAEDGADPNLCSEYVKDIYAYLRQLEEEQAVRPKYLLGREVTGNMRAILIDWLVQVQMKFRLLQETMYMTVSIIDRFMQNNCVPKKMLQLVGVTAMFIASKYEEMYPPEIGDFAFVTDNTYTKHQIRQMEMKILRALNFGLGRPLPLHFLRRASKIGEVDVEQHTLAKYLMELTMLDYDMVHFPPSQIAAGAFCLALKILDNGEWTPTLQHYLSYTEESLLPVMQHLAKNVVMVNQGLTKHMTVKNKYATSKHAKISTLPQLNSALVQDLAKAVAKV
Sequence of CDK6/CCND1 (Q00534 whole entry): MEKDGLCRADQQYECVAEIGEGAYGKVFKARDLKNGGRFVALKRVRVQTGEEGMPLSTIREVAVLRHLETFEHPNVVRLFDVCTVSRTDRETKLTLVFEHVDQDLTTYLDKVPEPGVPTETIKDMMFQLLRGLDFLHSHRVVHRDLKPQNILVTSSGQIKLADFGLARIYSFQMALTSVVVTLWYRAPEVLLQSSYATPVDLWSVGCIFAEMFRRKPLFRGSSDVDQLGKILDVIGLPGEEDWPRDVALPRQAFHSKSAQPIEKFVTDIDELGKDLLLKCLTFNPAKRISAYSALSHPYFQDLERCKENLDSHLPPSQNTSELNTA
Sequence of CDK6/CCND1 (P24385 whole entry partner): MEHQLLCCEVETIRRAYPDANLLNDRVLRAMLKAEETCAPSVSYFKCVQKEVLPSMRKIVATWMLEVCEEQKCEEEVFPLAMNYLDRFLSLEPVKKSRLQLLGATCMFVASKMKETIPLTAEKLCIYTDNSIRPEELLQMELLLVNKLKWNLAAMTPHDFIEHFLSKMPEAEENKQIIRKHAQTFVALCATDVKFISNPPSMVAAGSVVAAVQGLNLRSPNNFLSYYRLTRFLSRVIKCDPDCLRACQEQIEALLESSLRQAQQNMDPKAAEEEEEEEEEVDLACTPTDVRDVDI

In the case of `CC(C)N(C)c1nccc2cnc(NC3CCN(S(C)(=O)=O)CC3)cc12` [Ex 35, N1-isopropyl-N1-methyl-N7-(1-(methylsulfonyl)piperidin-4-yl)-2,6-naphthyridine-1,7-diamine], the pIC50 in assay [1] (setting [5]) is 6.60 to 7.60; in assay [2] (setting [6]), 6.60 to 7.60; in assay [3] (setting [7]), more than 7.60; in assay [4] (setting [8]), 6.60 to 7.60.

On to `CS(=O)(=O)N1CCC(Nc2cc3c(N4CC5(CC(O)C5)C4)nccc3cn2)CC1` [Ex 36, 2-(7-((1-(methylsulfonyl)piperidin-4-yl)amino)-2,6-naphthyridin-1-yl)-2-azaspiro[3.3]heptan-6-ol], for which the pIC50 in assay [1] (setting [5]) was 6.60 to 7.60; in assay [2] (setting [6]) it was 6.60 to 7.60; in assay [3] (setting [7]) it was more than 7.60; in assay [4] (setting [8]), 6.60 to 7.60.

Regarding `CS(=O)(=O)N1CCC(Nc2cc3c(N4CCC(C#N)CC4)nccc3cn2)CC1` [Ex 37, 1-(7-((1-(methylsulfonyl)piperidin-4-yl)amino)-2,6-naphthyridin-1-yl)piperidine-4-carbonitrile], the pIC50 in assay [1] (setting [5]) was 6.60 to 7.60; in assay [2] (setting [9]), less than 6.60; in assay [3] (setting [7]) it was more than 7.60; in assay [4] (setting [8]), 6.60 to 7.60.

In the case of `CS(=O)(=O)N1CCC(Nc2cc3c(N4CCC(CO)CC4)nccc3cn2)CC1` [Ex 41, (1-(7-((1-(methylsulfonyl)piperidin-4-yl)amino)-2,6-naphthyridin-1-yl)piperidin-4-yl)methanol], the pIC50 was more than 7.60 in assay [1] (setting [10]), less than 6.60 in assay [2] (setting [9]), more than 7.60 in assay [3] (setting [7]) and more than 7.60 in assay [4] (setting [11]).

As for `CS(=O)(=O)N1CCC(Nc2cc3c(N4CC(C#N)C4)nccc3cn2)CC1` [Ex 43, 1-(7-((1-(methylsulfonyl)piperidin-4-yl)amino)-2,6-naphthyridin-1-yl)azetidine-3-carbonitrile], the pIC50 is 6.60 to 7.60 in assay [1] (setting [5]), less than 6.60 in assay [2] (setting [9]), more than 7.60 in assay [3] (setting [7]) and 6.60 to 7.60 in assay [4] (setting [8]).

`CN(c1nccc2cnc(NC3CCN(S(C)(=O)=O)CC3)cc12)C1CCCCC1` [Ex 44, N1-cyclohexyl-N1-methyl-N7-(1-(methylsulfonyl)piperidin-4-yl)-2,6-naphthyridine-1,7-diamine]: the pIC50 in assay [1] (setting [5]) was 6.60 to 7.60; in assay [2] (setting [6]), 6.60 to 7.60; in assay [3] (setting [7]) it was more than 7.60; in assay [4] (setting [8]) it was 6.60 to 7.60.

Turning to `CN(c1nccc2cnc(NC3CCN(S(C)(=O)=O)CC3)cc12)C1CC1` [Ex 46, N1-cyclopropyl-N1-methyl-N7-(1-(methylsulfonyl)piperidin-4-yl)-2,6-naphthyridine-1,7-diamine], the pIC50 in assay [1] (setting [5]) was 6.60 to 7.60; in assay [2] (setting [9]), less than 6.60; in assay [3] (setting [12]) it was 6.60 to 7.60; in assay [4] (setting [8]) it was 6.60 to 7.60.

With `CS(=O)(=O)N1CCC(Nc2cc3c(N4CCC(F)(F)CC4)nccc3cn2)CC1` [Ex 47, 5-(4,4-difluoropiperidin-1-yl)-N-(1-(methylsulfonyl)piperidin-4-yl)-2,6-naphthyridin-3-amine], the pIC50 was more than 7.60 in assay [1] (setting [10]), 6.60 to 7.60 in assay [2] (setting [6]), 6.60 to 7.60 in assay [3] (setting [12]) and more than 7.60 in assay [4] (setting [11]).

In the case of `CS(=O)(=O)N1CCC(Nc2cc3c(N4CCNC(=O)C4)nccc3cn2)CC1` [Ex 48, 4-(7-((1-(methylsulfonyl)piperidin-4-yl)amino)-2,6-naphthyridin-1-yl)piperazin-2-one], the pIC50 was more than 7.60 in assay [1] (setting [10]), less than 6.60 in assay [2] (setting [9]), 6.60 to 7.60 in assay [3] (setting [12]) and more than 7.60 in assay [4] (setting [11]).

With `CN(C)C1CCN(c2nccc3cnc(NC4CCN(S(C)(=O)=O)CC4)cc23)CC1` [Ex 49, 5-(4-(dimethylamino)piperidin-1-yl)-N-(1-(methylsulfonyl)piperidin-4-yl)-2,6-naphthyridin-3-amine], the pIC50 in assay [1] (setting [5]) was 6.60 to 7.60; in assay [2] (setting [9]), less than 6.60; in assay [3] (setting [12]), 6.60 to 7.60; in assay [4] (setting [8]), 6.60 to 7.60.

`COC1CCN(c2nccc3cnc(NC4CCN(S(C)(=O)=O)CC4)cc23)CC1` [Ex 50, 5-(4-methoxypiperidin-1-yl)-N-(1-(methylsulfonyl)piperidin-4-yl)-2,6-naphthyridin-3-amine]: the pIC50 in assay [1] (setting [10]) is more than 7.60; in assay [2] (setting [9]) it was less than 6.60; in assay [3] (setting [12]) it was 6.60 to 7.60; in assay [4] (setting [8]), 6.60 to 7.60.

As to `CS(=O)(=O)N1CCC(Nc2cc3c(N4CC(O)C4)nccc3cn2)CC1` [Ex 51, 1-(7-((1-(methylsulfonyl)piperidin-4-yl)amino)-2,6-naphthyridin-1-yl)azetidin-3-ol], the pIC50 in assay [1] (setting [10]) is more than 7.60; in assay [2] (setting [9]) it was less than 6.60; in assay [3] (setting [12]) it was 6.60 to 7.60; in assay [4] (setting [8]), 6.60 to 7.60.

`CS(=O)(=O)N1CCC(Nc2cc3c(-c4ccc5[nH]ccc5c4)nccc3cn2)CC1` [Ex 63, 5-(1H-indol-5-yl)-N-(1-(methylsulfonyl)piperidin-4-yl)-2,6-naphthyridin-3-amine]: the pIC50 in assay [1] (setting [10]) was more than 7.60; in assay [2] (setting [6]), 6.60 to 7.60; in assay [3] (setting [7]), more than 7.60; in assay [4] (setting [11]), more than 7.60.

Turning to `CS(=O)(=O)N1CCC(Nc2cc3c(-c4cccc(CO)c4)nccc3cn2)CC1` [Ex 64, (3-(7-((1-(methylsulfonyl)piperidin-4-yl)amino)-2,6-naphthyridin-1-yl)phenyl)methanol], the pIC50 in assay [1] (setting [10]) is more than 7.60; in assay [2] (setting [6]) it was 6.60 to 7.60; in assay [3] (setting [7]) it was more than 7.60; in assay [4] (setting [11]), more than 7.60.

With `CS(=O)(=O)N1CCC(Nc2cc3c(-c4ccc(O)cc4)nccc3cn2)CC1` [Ex 68, 4-(7-((1-(methylsulfonyl)piperidin-4-yl)amino)-2,6-naphthyridin-1-yl)phenol], the pIC50 in assay [1] (setting [10]) is more than 7.60; in assay [2] (setting [9]) it was less than 6.60; in assay [3] (setting [7]) it was more than 7.60; in assay [4] (setting [8]) it was 6.60 to 7.60.

As to `CS(=O)(=O)N1CCC(Nc2cc3c(-c4cccc(O)c4)nccc3cn2)CC1` [Ex 69, 3-(7-((1-(methylsulfonyl)piperidin-4-yl)amino)-2,6-naphthyridin-1-yl)phenol], the pIC50 was 6.60 to 7.60 in assay [1] (setting [5]), 6.60 to 7.60 in assay [2] (setting [6]), more than 7.60 in assay [3] (setting [7]) and 6.60 to 7.60 in assay [4] (setting [8]).

In the case of `CS(=O)(=O)N1CCC(Nc2cc3c(-c4ccc5ocnc5c4)nccc3cn2)CC1` [Ex 70, 5-(benzo[d]oxazol-5-yl)-N-(1-(methylsulfonyl)piperidin-4-yl)-2,6-naphthyridin-3-amine], the pIC50 is more than 7.60 in assay [1] (setting [10]), less than 6.60 in assay [2] (setting [9]), more than 7.60 in assay [3] (setting [7]) and 6.60 to 7.60 in assay [4] (setting [8]).

In the case of `COCc1cccc(-c2nccc3cnc(NC4CCN(S(C)(=O)=O)CC4)cc23)c1` [Ex 71, 5-(3-(methoxymethyl)phenyl)-N-(1-(methylsulfonyl)piperidin-4-yl)-2,6-naphthyridin-3-amine], the pIC50 in assay [1] (setting [5]) was 6.60 to 7.60; in assay [2] (setting [6]), 6.60 to 7.60; in assay [3] (setting [7]), more than 7.60; in assay [4] (setting [8]) it was 6.60 to 7.60.

Regarding `CS(=O)(=O)N1CCC(Nc2cc3c(-c4cccc(N)c4)nccc3cn2)CC1` [Ex 72, 5-(3-aminophenyl)-N-(1-(methylsulfonyl)piperidin-4-yl)-2,6-naphthyridin-3-amine], the pIC50 is 6.60 to 7.60 in assay [1] (setting [5]), less than 6.60 in assay [2] (setting [9]), more than 7.60 in assay [3] (setting [7]) and 6.60 to 7.60 in assay [4] (setting [8]).

On to `CS(=O)(=O)N1CCC(Nc2cc3c(-c4ccc(N)cc4)nccc3cn2)CC1` [Ex 73, 5-(4-aminophenyl)-N-(1-(methylsulfonyl)piperidin-4-yl)-2,6-naphthyridin-3-amine], for which the pIC50 is more than 7.60 in assay [1] (setting [10]), 6.60 to 7.60 in assay [2] (setting [6]), more than 7.60 in assay [3] (setting [7]) and 6.60 to 7.60 in assay [4] (setting [8]).

Consider `CS(=O)(=O)N1CCC(Nc2cc3c(-c4ccc(C#N)cc4)nccc3cn2)CC1` [Ex 74, 4-(7-((1-(methylsulfonyl)piperidin-4-yl)amino)-2,6-naphthyridin-1-yl)benzonitrile], for which the pIC50 in assay [1] (setting [5]) was 6.60 to 7.60; in assay [2] (setting [9]) it was less than 6.60; in assay [3] (setting [7]), more than 7.60; in assay [4] (setting [8]) it was 6.60 to 7.60.

As for `CS(=O)(=O)N1CCC(Nc2cc3c(-c4cccc(C#N)c4)nccc3cn2)CC1` [Ex 75, 3-(7-((1-(methylsulfonyl)piperidin-4-yl)amino)-2,6-naphthyridin-1-yl)benzonitrile], the pIC50 was 6.60 to 7.60 in assay [1] (setting [5]), less than 6.60 in assay [2] (setting [9]), more than 7.60 in assay [3] (setting [7]) and 6.60 to 7.60 in assay [4] (setting [8]).
